Experimental data from US6323202A, “HSV primase inhibitors” (Boehringer Ingelheim (Canada) Ltd., priority 2000, dated 2001).

Tests used:
[1] = biological target: T1, HSV-1 helicase-primase (UL5(K103A) helicase-primase holoenzyme) (Human herpesvirus 1, UniProt P10189+P10236, K103A); assay: HSV-1 Helicase-primase DNA Primase Assay (incorporation of [3H]GTP into primers); format: biochemical
T1 construct: made in house; host or cells: recombinant baculovirus expression (insect cells, by own knowledge of the cited Dodson 1989 and Dracheva 1995 methods)
Excerpt: i) HSV-1 Helicase-primase DNA Primase Assay
The HSV-1 helicase-primase enzyme used for primase assays was expressed and isolated as described (M. S. Dodson et al., J. Biol. Chem. 1989, 264, 20835; S. Dracheva et al. J. Biol. Chem. 1995, 270, 14148) except that the UL5-expressing baculovirus was changed to express UL5(K103A). The resulting altered enzyme contained no detectable helicase, DNA-dependent ATPase, or ATPase activity. However, DNA primase activity was increased over the wild type enzyme.
Assay: DNA primase activity was measured by the incorporation of [^3 H]GTP into newly synthesized primers by the UL5(K103A) helicase-primase holoenzyme. Assays were performed using as template the 50-mer single-stranded DNA oligonucleotide 5'-CTTCTTCGGT TCCGACTAC CCCTCCCGACTGCCTATGATGTTTATCCTTT G-3'OH (SEQ ID No. 1) derived from the preferred priming site on .phi.X174 single-stranded DNA [D. J. Teney et al., J. Biol. Chem. 1995, 270, 9129-9136]. The reaction mixtures (60 μl) contained […] pH 8.0, 5 mM magnesium chloride, 1 mM DTT, 0.01 % CHAPS, 100 μM each of ATP, GTP, CTP, 10 μM [biotin]UTP, 1 μCi [^3 H]GTP (specific activity 30.8 Ci/mmol), 1 μg of the 50-mer template and 45 μg/ml of the UL5(K103A)-altered helicase-primaseholoenzyme. The samples were incubated at 34° for 45 min in a circulating waterbath and reactions were quenched by the addition of 20 μl 0.5 M EDTA pH 8. Then, 50 μl of the reaction mixtures were transferred to Millipore filtration plates (MHVB N45, 0.45 μm) containing 40 μl of immobilized avidin beads (Pierce). After incubating 30 min at room temperature on a microplate shaker, the wells were washed five times with 300 μl wash buffer (50 mM 4-(2-hydroxyethyl)-1-piperazineethanesulfonic acid (HEPES) pH 7.5 and 0.5 M NaCl) and the filter plates were aspirated to dryness. The radioactivity in each well was counted using the Topcount® after adding 100 μl Microscint® 20 (Camberra-Packard Canada, Mississauga, Ontario, Canada) to each well.
In all cases, compounds were tested in three-fold serial dilutions and the results were expressed as percent inhibition as compared to control reactions without inhibitor. IC50 (i.e., inhibitor concentration that yielded 50% inhibition of enzyme activity) values were determined from dose-response curves using SAS software (SAS Institute, Cary, N.C., USA). A non-linear regression analysis based on the Hill equation, M. Dixon and E.C. Webb Enzymes, Academic Press: New York, N.Y., USA, 1979, was applied to the percent inhibition-concentration data.
(§1) Results for assay i are expressed under the heading HSV-1, IC50 (μM). Results for assay ii are expressed under the heading HSV-1, EC50 (μM).

[2] = system: HSV-1; assay: Inhibition of Herpes Simplex Virus (HSV-1) Replication in Cell Culture (ELISA of glycoprotein C); format: cell-based, HSV-1 strain F or KOS; conditions: Human alphaherpesvirus 1; viral replication in BHK-21 cells, MOI 0.05 PFU/cell, 24 h, 37°
Method: ii) Inhibition of Herpes Simplex Virus (HSV-1) Replication in Cell Culture
Assay: BHK-21 cells clone 13 (ATCC CCL10) were incubated for two days in 850 cm^2 roller bottles (2×10^7 cells/bottle) with α-MEM medium (Gibco Canada Inc., Burlington, Ontario, Canada) supplemented with 8% (v/v) fetal bovine serum (FBS, Gibco Canada, Inc.). The cells were trypsinized and then 3,000 cells in 100 μL of fresh medium were transferred into each well of a 96-well microtiter plate. The cells were incubated at 37° for a period of 3 days to reach a density of 50,000 cells per well. The cells were washed twice with 100 μL of α-MEM supplemented with 2% heat inactivated FBS and incubated for 1-2 h in 100 μL of the same medium.
Thereafter, the cells were infected with HSV-1 strain F or KOS (multiplicity of infection=0.05 PFU/cell) in 50 μL of α-MEM supplemented with 2% heat inactivated FBS. Following one hour of virus absorption at 37°, the medium was removed and the cells were washed with α-MEM supplemented with 2% heat inactivated FBS (2×100 μL). The cells were incubated with or without 100 μL of the appropriate concentration of test reagent in α-MEM medium supplemented with 2% heat inactivated FBS. After 24 h of incubation at 37°, the extent of viral replication was determined by an ELISA assay; for instance, the following assay that detects the late glycoprotein C of HSV-1.
Cells were fixed in the microtiter plate with 100 μL of 0.063% glutaraldehyde in phosphate buffered saline for 30 min at room temperature. The microtiter plate was then washed once with casein blocking solution and blocked with 200 μL of the same solution for 1 h at room temperature. Thereafter, 100 μL of mAb C11 recognizing the glycoprotein C of HSV-1 (see E. Trybala et al., Journal of General Virology, 1994, 75, 743) was added to each well for 2 h at room temperature. The plate was washed three times with phosphate buffered saline containing 0.05% polyoxyethylene (20) sorbitan monooleate. The cells were incubated with 100 μL of sheep anti-mouse IgG horseradish peroxidase for 1 h at room temperature in the dark.
The plate was washed three times with 200 μL of the above-noted phosphate buffer saline preparation, and then once with 0.1 M sodium citrate (pH 4.5). Thereafter, 100 μL of orthophenylenediamine dihydrochloride (OPD, Gibco, Canada Inc.) was added to each well. The plate was agitated on a microplate shaker for 30 min in the dark. Color development was monitored at 450 nm using a microplate spectrophotometer.
SAS was used to calculate % inhibition of viral replication and to generate EC50 values.
as §1

T1 sequence (P10189 whole entry, looked up, stated change not applied): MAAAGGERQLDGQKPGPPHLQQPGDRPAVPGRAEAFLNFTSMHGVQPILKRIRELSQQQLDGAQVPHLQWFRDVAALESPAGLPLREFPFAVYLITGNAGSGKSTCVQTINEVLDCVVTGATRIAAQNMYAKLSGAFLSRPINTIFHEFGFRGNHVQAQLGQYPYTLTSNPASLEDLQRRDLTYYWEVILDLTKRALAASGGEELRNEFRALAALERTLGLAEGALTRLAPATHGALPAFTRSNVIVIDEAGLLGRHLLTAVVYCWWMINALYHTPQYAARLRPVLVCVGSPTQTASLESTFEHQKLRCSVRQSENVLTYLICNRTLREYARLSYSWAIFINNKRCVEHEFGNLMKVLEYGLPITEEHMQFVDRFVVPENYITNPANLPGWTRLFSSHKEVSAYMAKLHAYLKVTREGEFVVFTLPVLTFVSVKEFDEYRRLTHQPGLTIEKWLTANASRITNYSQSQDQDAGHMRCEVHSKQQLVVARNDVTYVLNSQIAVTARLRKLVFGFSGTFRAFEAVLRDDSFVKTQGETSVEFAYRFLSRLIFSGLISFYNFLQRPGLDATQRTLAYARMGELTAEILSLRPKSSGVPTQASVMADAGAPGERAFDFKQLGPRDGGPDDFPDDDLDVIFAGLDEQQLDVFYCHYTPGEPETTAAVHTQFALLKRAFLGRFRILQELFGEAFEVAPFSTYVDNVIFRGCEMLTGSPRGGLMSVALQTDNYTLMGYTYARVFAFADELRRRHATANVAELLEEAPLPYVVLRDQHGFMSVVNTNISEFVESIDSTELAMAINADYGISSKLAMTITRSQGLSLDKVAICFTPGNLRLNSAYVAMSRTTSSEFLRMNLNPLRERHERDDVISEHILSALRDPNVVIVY
T1 sequence (P10192 whole entry, stated change not applied, further chain): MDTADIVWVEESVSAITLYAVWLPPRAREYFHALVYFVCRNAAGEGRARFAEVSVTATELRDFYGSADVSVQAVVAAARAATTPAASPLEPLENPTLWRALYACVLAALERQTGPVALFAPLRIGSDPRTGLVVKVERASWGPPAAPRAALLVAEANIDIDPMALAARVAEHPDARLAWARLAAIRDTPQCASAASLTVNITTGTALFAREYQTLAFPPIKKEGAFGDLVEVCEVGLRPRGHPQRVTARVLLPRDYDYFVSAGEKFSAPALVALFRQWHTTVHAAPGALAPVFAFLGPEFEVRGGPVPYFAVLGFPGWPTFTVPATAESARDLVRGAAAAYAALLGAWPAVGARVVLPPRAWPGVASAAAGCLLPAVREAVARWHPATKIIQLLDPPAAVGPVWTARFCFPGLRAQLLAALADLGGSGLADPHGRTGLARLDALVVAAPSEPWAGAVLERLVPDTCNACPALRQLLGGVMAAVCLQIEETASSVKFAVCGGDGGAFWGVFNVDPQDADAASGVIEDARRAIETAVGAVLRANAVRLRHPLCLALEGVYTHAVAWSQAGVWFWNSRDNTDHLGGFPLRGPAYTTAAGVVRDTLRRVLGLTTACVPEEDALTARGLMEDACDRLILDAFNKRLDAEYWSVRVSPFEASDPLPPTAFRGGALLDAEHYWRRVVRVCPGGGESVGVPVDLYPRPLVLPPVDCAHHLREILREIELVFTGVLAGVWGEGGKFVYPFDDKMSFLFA
T1 sequence (P10236 whole entry, stated change not applied): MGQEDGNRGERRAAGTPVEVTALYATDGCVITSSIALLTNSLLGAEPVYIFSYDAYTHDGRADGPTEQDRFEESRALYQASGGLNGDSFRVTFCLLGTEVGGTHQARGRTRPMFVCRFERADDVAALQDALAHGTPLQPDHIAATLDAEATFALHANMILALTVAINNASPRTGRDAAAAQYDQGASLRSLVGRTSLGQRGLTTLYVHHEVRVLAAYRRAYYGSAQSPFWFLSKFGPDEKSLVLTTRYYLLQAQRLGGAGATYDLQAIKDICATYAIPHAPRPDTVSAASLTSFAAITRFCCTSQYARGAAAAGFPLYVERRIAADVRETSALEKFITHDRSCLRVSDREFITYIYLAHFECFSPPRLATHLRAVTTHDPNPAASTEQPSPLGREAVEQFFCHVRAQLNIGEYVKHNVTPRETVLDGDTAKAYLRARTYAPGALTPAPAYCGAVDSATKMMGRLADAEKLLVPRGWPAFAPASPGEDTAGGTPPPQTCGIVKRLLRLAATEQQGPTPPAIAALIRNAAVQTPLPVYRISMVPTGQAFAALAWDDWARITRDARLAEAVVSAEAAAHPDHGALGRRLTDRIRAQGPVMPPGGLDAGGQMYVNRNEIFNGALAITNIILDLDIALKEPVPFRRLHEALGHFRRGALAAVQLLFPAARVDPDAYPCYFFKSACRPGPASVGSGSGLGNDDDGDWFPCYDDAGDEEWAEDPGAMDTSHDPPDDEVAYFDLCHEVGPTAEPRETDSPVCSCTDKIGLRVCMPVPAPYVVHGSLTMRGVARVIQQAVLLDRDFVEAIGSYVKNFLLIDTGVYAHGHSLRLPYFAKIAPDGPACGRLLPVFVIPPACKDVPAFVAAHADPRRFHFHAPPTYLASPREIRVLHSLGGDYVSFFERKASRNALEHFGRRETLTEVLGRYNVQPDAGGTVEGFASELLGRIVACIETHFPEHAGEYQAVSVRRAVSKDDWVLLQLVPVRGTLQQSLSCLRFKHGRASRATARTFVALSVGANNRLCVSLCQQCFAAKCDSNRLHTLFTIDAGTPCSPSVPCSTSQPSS

| SMILES | IC50 [1] [nM] | EC50 [2] [nM] |
| --- | --- | --- |
| O=C(NCC1CCCCC1)c1cccc(NC(=O)c2ccc(Cl)cc2O)c1 [Entry 13] | < 1000 | 1000 to 100000 |
| O=C(NCc1ccccn1)c1cccc(NC(=O)c2ccc(Cl)cc2O)c1 [Entry 17] | < 1000 | 1000 to 100000 |
| Cc1ccc(C(=O)Nc2cccc(C(=O)NCc3ccccc3)c2)c(O)c1 [Entry 102] | < 1000 |  |
| O=C(Nc1cccc(C(=O)N2CCCCC2)c1)c1ccc(Cl)cc1O [Entry 10] | > 100000 | < 1000 |
| CC(=O)c1cccc(NC(=O)c2ccc(Cl)cc2O)c1 [Entry 2] | 1000 to 100000 | 1000 to 100000 |
| [N-]=[N+]=Nc1cc(O)c(C(=O)Nc2cccc(C(=O)NCc3ccccc3)c2)cc1I [Entry 106] | < 1000 |  |
| COc1ccc(C(=O)Nc2cccc(C(=O)NCc3ccccc3)c2)c(O)c1 [Entry 103] | < 1000 |  |
| CCCCC(C(=O)OCC)C(=O)c1cccc(NC(=O)c2ccc(Cl)cc2O)c1 (stereo not drawn) [Entry 1, Ethyl α-butyl-3-{(4chloro2-hydroxybenzoyl)amino}-β-oxobenzenepropanoate] | 1000 to 100000 | 1000 to 100000 |
| CCCC(=O)c1cccc(NC(=O)c2ccc(Cl)cc2O)c1 [Entry 4] | 1000 to 100000 | 1000 to 100000 |
| CCOC(=O)CC(=O)c1cccc(NC(=O)c2ccc(Cl)cc2O)c1 [Entry 3] | 1000 to 100000 | 1000 to 100000 |
| O=C(NCc1ccncc1)c1cccc(NC(=O)c2ccc(Cl)cc2O)c1 [Entry 19] | 1000 to 100000 |  |
| O=C(NCc1ccccc1)c1cccc(NC(=O)c2ccc(Cl)cc2O)c1 [Entry 15] | < 1000 | 1000 to 100000 |
| CN(CCc1ccccn1)C(=O)c1cccc(NC(=O)c2ccc(Cl)cc2O)c1 [Entry 11] | > 100000 |  |
| O=C(Cc1ccccc1)c1cccc(NC(=O)c2ccc(Cl)cc2O)c1 [Entry 5] | 1000 to 100000 | 1000 to 100000 |
| CCCCNC(=O)c1cccc(NC(=O)c2ccc(Cl)cc2O)c1 [Entry 16] | 1000 to 100000 | 1000 to 100000 |
| Nc1ccc(C(=O)Nc2cccc(C(=O)NCc3ccccc3)c2)c(O)c1 [Entry 108] | 1000 to 100000 |  |
| O=C(OCc1ccccc1)c1cccc(NC(=O)c2ccc(Cl)cc2O)c1 [Entry 9] | < 1000 |  |
| O=C(NCCc1ccccn1)c1cccc(NC(=O)c2ccc(Cl)cc2O)c1 [Entry 14] | 1000 to 100000 | 1000 to 100000 |
| O=C(NC1CCCCC1)c1cccc(NC(=O)c2ccc(Cl)cc2O)c1 [Entry 18] | 1000 to 100000 | < 1000 |
| O=C(Nc1cccc(C(=O)C2CCCCC2)c1)c1ccc(Cl)cc1O [Entry 6] | 1000 to 100000 | 1000 to 100000 |
| CCCCN(C)C(=O)c1cccc(NC(=O)c2ccc(Cl)cc2O)c1 [Entry 12, N-Butyl-N-methyl-3-{(4-chloro-2-hydroxybenzoyl)amino)benzamide] | > 100000 | < 1000 |
| Nc1cc(Cl)ccc1C(=O)Nc1cccc(C(=O)NCc2ccccc2)c1 [Entry 107] | > 100000 |  |
| CCCCCC(=O)c1cccc(NC(=O)c2cccc(Cl)c2O)c1 [Entry 101] | 1000 to 100000 | 1000 to 100000 |
| O=C(CCc1ccccc1)c1cccc(NC(=O)c2ccc(Cl)cc2O)c1 [Entry 7] | 1000 to 100000 |  |
| [N-]=[N+]=Nc1ccc(C(=O)Nc2cccc(C(=O)NCc3ccccc3)c2)c(O)c1 [Entry 104] | < 1000 |  |
| Nc1ccccc1C(=O)Nc1cccc(C(=O)NCc2ccccc2)c1 [Entry 105] | > 100000 |  |
| O=C(OCc1ccccn1)c1cccc(NC(=O)c2ccc(Cl)cc2O)c1 [Entry 8] | < 1000 | 1000 to 100000 |
